“And” between values parts separate entries of the source, which are not always exact repeats. Equal values may be shown once. Read-outs that look alike come from different tables or passages of the source.
What was measured:
[1] = target: T1, recombinant human H1 histamine receptor (Homo sapiens, UniProt P35367); assay: Histamine receptor radioligand binding assay, H1; conditions: for H1:H2 Selectivity: H2 Ki versus H1 Ki; for H1 Receptor Fold-change over parent: Ki relative to amitriptyline; for Ki: [3H]-Pyrilamine 1.2 nM, CHO membranes
T1 construct: expressed in transfected cells; host or cells: CHO cells (membranes)
T1 sequence (P35367 whole entry): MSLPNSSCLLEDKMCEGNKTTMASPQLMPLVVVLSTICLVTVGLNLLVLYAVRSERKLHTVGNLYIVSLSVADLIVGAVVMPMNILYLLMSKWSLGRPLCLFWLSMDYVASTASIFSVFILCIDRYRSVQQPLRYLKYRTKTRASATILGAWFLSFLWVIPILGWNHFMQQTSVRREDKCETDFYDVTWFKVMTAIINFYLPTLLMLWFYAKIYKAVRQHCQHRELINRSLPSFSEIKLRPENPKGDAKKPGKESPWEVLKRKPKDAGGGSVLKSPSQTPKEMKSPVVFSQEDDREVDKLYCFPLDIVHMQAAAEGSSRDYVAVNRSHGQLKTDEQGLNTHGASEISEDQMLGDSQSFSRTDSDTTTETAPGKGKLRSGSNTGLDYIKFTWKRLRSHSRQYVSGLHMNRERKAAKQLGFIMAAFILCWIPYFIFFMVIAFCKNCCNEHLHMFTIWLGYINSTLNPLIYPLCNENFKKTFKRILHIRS
Description: (§1) Competition binding experiments were conducted by incubating membranes with a fixed concentration of radioligand in the presence of variable concentrations of test compounds. The radioligands used were specific for each receptor subtype and the assay conditions are described in Table 2. Following incubations, the membranes were washed and the bound radioactivity was measured. Non-specific binding was measured in the presence of excess unlabelled ligand; this value was subtracted from the total binding yielding the specific binding at each test compound concentration.
(§2) Ki was obtained using the Cheng Prusoff correction using experimental Kd values that were previously determined under the same assay conditions.

[2] = target: T2, recombinant human H2 histamine receptor (Homo sapiens, UniProt P25021); assay: Histamine receptor radioligand binding assay, H2; conditions: for H2 Receptor Fold-change over parent: Ki relative to amitriptyline; for Ki: [125I]-Aminopotentidine 0.1 nM, CHO membranes
T2 construct: expressed in transfected cells; host or cells: CHO cells (membranes)
T2 sequence (P25021 whole entry): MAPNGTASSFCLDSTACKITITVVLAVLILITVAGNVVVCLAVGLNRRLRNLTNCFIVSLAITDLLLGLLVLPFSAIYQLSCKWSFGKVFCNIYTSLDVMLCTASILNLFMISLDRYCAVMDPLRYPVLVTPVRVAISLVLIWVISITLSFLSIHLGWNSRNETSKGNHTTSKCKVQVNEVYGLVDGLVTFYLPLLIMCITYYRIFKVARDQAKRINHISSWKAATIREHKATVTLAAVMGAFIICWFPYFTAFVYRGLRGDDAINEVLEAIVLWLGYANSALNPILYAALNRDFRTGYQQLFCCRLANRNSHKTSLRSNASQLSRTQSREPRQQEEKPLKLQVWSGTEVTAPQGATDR
Description: as §1, §2

[3] = target: T3, recombinant human M1 muscarinic acetylcholine receptor (Homo sapiens, UniProt P11229); assay: Muscarinic receptor binding assay, M1; conditions: 3H-N-Methylscopolamine 0.8 nM, CHO membranes
T3 construct: expressed in transfected cells; host or cells: CHO cells (membranes)
T3 sequence (P11229 1-460): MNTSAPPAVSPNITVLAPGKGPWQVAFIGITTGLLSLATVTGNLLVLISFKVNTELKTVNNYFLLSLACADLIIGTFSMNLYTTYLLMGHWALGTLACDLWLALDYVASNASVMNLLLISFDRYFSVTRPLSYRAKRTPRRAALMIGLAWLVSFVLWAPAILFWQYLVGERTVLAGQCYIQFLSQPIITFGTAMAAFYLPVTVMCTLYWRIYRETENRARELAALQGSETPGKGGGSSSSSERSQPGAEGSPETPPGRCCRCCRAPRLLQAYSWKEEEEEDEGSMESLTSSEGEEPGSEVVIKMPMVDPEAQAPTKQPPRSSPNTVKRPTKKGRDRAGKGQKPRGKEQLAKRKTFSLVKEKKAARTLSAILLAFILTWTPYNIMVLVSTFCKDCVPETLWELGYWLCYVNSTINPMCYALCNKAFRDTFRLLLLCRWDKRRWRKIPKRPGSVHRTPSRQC
Description: (§3) Competition binding experiments were conducted by incubating membranes with a fixed concentration of radioligand in the presence of variable concentrations of test compounds. ^3H—N-Methylscopolamine at 0.8 nM was used as the radioligand for all receptor subtypes. Incubations were carried out for 2 hours at 25° C. in buffer containing 50 mM Tris HCl, 10 mM MgCl2 and 1 mM EDTA. Following incubations, the membranes were washed the bound radioactivity was measured. […] Ki was obtained using the Cheng Prusoff correction using Kd values that were experimental determined previously under these assay conditions.

[4] = target: T4, recombinant human M2 muscarinic acetylcholine receptor (Homo sapiens, UniProt P08172); assay: Muscarinic receptor binding assay, M2; conditions: 3H-N-Methylscopolamine 0.8 nM, CHO membranes
T4 construct: expressed in transfected cells; host or cells: CHO cells (membranes)
T4 sequence (P08172 1-466): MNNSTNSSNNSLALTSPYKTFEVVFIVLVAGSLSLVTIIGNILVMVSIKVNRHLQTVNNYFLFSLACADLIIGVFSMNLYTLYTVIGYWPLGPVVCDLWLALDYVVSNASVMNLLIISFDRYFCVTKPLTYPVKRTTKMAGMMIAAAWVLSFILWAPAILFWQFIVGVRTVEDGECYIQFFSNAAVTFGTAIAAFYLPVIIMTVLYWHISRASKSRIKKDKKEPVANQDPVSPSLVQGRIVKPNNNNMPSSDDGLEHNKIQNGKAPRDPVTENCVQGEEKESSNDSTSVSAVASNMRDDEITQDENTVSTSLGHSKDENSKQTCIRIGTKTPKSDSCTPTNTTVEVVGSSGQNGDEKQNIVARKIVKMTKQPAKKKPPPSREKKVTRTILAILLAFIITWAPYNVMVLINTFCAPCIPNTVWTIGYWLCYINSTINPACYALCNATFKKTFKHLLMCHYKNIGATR
Description: as §3

[5] = target: sodium channels (cardiac INa) in isolated human atrial myocytes (Homo sapiens, UniProt Q14524); assay: Sodium channel assay, whole-cell patch clamp, cardiac INa; assay type: cell-based; conditions: for IC50: approximate, >50% inhibition not obtained at highest concentration
sodium channels (cardiac INa) in isolated human atrial myocytes, sequence (Q14524 whole entry): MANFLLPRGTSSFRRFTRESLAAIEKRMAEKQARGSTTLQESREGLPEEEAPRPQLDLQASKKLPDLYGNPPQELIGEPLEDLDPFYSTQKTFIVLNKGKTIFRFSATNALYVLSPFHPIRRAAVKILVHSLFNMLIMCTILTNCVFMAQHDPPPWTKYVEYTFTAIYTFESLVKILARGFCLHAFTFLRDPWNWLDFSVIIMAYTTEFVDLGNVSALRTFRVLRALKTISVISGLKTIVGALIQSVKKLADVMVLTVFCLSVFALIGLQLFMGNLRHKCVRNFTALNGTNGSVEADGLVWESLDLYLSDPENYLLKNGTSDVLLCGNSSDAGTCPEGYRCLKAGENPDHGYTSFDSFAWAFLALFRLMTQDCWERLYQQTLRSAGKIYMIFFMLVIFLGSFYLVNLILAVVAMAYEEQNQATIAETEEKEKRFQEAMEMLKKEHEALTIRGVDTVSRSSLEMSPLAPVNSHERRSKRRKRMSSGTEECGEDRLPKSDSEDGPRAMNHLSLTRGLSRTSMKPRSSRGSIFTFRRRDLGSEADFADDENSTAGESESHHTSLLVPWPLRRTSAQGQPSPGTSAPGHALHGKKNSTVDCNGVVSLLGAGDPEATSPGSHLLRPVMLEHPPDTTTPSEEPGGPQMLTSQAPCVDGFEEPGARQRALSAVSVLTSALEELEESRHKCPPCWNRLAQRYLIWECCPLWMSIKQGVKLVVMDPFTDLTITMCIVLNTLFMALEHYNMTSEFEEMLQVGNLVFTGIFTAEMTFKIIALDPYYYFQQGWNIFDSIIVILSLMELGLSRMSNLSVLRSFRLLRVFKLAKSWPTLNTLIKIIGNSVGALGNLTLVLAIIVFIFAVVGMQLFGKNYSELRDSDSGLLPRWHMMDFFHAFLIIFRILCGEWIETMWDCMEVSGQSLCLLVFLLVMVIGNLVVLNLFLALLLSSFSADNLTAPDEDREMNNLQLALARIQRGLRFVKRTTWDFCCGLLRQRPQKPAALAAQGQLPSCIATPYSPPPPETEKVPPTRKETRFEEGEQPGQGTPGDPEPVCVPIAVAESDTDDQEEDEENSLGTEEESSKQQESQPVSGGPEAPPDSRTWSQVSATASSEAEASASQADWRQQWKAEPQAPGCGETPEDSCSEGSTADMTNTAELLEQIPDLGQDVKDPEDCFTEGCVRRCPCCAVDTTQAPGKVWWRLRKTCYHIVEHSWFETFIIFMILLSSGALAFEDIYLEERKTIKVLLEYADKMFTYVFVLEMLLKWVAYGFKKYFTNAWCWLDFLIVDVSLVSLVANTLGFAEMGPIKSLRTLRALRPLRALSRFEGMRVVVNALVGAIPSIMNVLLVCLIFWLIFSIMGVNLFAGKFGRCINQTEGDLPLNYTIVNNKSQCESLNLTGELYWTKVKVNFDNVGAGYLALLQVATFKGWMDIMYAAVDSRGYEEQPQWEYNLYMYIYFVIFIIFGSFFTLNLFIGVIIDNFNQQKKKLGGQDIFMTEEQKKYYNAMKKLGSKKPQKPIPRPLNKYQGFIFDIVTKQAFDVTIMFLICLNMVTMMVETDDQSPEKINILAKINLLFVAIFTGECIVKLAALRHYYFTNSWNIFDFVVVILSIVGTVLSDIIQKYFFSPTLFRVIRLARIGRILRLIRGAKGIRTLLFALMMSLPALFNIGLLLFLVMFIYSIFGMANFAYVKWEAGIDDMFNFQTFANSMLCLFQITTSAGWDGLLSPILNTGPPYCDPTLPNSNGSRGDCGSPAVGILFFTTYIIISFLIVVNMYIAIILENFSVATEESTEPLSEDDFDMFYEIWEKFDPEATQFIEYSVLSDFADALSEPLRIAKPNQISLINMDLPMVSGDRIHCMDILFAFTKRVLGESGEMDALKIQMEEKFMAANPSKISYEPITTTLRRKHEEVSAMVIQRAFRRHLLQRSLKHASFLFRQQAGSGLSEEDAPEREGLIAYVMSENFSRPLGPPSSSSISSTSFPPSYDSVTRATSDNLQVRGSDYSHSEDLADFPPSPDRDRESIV

[6] = system: sodium channels (neuronal INa) in isolated rat dorsal root ganglion cells; assay: Sodium channel assay, whole-cell patch clamp, neuronal INa; assay type: cell-based; conditions: for IC50: approximate, >50% inhibition not obtained at highest concentration
[7] = pKa and LogP determinations; assay type: physicochemical
[8] = target: T5, noradrenalin transporters (rat forebrain membranes) (Rattus norvegicus, UniProt Q9WTR4); assay: Noradrenalin transporter binding assay; conditions: for Ki: [3H]-nisoxetine 1.0 nM, rat forebrain membranes, read-out: Ki, binding affinity to noradrenalin transporters
T5 construct: membranes prepared from rat forebrain which express noradrenalin transporters; from tissue; host or cells: rat forebrain membranes
T5 sequence (Q9WTR4 1-597): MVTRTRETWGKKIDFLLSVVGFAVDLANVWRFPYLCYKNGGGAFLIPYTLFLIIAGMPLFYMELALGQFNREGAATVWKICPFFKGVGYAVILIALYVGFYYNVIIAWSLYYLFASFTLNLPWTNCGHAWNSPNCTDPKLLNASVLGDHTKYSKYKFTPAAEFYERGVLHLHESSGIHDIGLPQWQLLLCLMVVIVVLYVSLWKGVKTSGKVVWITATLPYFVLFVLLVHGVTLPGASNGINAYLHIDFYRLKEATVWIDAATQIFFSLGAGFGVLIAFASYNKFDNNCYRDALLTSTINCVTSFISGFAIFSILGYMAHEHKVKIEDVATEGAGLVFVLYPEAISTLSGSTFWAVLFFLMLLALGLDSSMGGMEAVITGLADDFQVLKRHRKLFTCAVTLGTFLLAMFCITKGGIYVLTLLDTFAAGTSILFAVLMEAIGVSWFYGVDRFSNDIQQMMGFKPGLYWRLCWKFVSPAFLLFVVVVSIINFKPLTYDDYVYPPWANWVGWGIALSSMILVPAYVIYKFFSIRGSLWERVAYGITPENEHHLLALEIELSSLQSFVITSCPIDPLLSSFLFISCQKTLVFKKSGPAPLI
Description: Competition binding experiments were conducted by incubating membranes with 1.0 nM of radioligand, [^3H]-nisoxetine, in the presence of variable concentrations (0.1 nM to 3 μM and 3 nM to 100 μM for parent and PEG conjugates, respectively) of test compounds. The reaction was carried out in 50 mM Tris-HCl (pH 7.4), 300 mM NaCl, 5 mM KCl at 0-4° C. for 4 hours. Following incubations, the membranes were washed, and the bound radioactivity was measured.
Ki was obtained using the Cheng Prusoff correction using experimental Kd values that were previously determined under these assay conditions.

[9] = target: T6, recombinant human M4 muscarinic acetylcholine receptor (Homo sapiens, UniProt P08173); assay: Muscarinic receptor binding assay, M4; conditions: 3H-N-Methylscopolamine 0.8 nM, CHO membranes
T6 construct: expressed in transfected cells; host or cells: CHO cells (membranes)
T6 sequence (P08173 1-479): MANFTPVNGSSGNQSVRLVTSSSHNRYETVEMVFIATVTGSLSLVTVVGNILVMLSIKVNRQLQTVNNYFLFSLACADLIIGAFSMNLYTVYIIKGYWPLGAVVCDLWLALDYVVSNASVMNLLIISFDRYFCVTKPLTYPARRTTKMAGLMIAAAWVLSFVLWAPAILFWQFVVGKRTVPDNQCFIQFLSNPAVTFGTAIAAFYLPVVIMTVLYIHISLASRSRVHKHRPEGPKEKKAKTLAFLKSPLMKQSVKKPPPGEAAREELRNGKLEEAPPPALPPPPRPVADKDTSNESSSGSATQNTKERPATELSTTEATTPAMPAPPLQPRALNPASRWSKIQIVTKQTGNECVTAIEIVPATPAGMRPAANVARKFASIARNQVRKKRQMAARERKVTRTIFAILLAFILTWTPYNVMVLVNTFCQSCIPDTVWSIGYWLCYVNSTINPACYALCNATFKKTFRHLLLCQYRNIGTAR
Description: as §3

[10] = target: T7, recombinant human M5 muscarinic acetylcholine receptor (Homo sapiens, UniProt P08912); assay: Muscarinic receptor binding assay, M5; conditions: 3H-N-Methylscopolamine 0.8 nM, CHO membranes
T7 construct: expressed in transfected cells; host or cells: CHO cells (membranes)
T7 sequence (P08912 1-532): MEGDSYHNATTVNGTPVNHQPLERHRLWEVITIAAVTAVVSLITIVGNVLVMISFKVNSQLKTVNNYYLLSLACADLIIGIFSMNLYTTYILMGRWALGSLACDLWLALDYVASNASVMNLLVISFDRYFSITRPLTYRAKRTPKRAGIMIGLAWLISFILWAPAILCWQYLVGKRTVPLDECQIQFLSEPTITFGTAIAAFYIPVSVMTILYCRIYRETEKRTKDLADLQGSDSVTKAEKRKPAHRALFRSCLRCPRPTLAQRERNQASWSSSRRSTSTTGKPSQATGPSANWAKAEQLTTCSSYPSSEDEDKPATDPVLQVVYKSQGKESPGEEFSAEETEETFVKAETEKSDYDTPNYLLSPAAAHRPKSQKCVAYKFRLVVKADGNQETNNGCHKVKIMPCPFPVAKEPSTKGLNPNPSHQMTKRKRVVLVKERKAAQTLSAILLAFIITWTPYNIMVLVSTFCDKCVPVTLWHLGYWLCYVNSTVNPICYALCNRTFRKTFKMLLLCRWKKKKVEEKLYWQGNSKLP
Description: as §3

[11] = pacing 0.1 Hz, read-out: Cardiac INa IC50 at 0.1 Hz
[12] = pacing 3 Hz, read-out: Cardiac INa IC50 at 3 Hz
[13] = pacing 0.1 Hz, read-out: Neuronal INa IC50 at 0.1 Hz
[14] = pacing 3 Hz, read-out: Neuronal INa IC50 at 3 Hz

COCCOCCOCCOCCOCCN(C)CCC=C1c2ccccc2CCc2ccccc21 [mPEG5-N-Amitriptyline]
H1:H2 Selectivity [1]: 3670
H1 Receptor Fold-change over parent [1]: 11
Ki [1]: 0.00357 µM
H2 Receptor Fold-change over parent [2]: 63
Ki [2]: 13.1 µM

COCCOCCOCCOCCOCCOCCN(C)CCC=C1c2ccccc2CCc2ccccc21 [mPEG6-N-Amitriptyline]
H1 Receptor Fold-change over parent [1]: 19
Ki [1]: 0.00613 µM
Ki [3]: 0.869 µM
Ki [4]: 1.17 µM

NC(=O)N1c2ccccc2C=Cc2ccccc21 [Carbamazepine, reference compound]
Cardiac INa Fold Change Relative to Parent, 0.1 Hz ([5]; pacing 0.1 Hz, relative to carbamazepine): 1.0
IC50 [5, 11]: 160 µM
Cardiac INa Fold Change Relative to Parent, 3 Hz ([5]; pacing 3 Hz, relative to carbamazepine): 1.0
IC50 [5, 12]: 145 µM
IC50 [6, 13]: 102 µM
IC50 [6, 14]: 114 µM

COCCOCCOCCOCCOCCOCCOCCNCCCN1c2ccccc2CCc2ccccc21 [mPEG7-NH-Desipramine, N-mPEG7-3-(10,11-dihydro-dibenzo[b,f]azepin-5-yl)-propylamine]
logP [7]: 2.5
pKa [7]: 8.94
Fold Change Relative to Parent [8]: 2972
Ki [8]: 5.92 µM

COCCOCCOCCN(C)CCC=C1c2ccccc2CCc2ccccc21 [mPEG3-N-Amitriptyline]
H1:H2 Selectivity [1]: 1663
H1 Receptor Fold-change over parent [1]: 6
Ki [1]: 0.00181 µM
H2 Receptor Fold-change over parent [2]: 14
Ki [2]: 3.01 µM

COCCOCCOCCNC(=O)N1c2ccccc2C=Cc2ccccc21 [mPEG3-N-Carbamazepine]
Cardiac INa Fold Change Relative to Parent, 0.1 Hz [5]: 2.8
Cardiac INa Fold Change Relative to Parent, 3 Hz [5]: 1.5
IC50 [5, 11]: 460 µM
IC50 [5, 12]: 214 µM
IC50 [6, 13]: 142 µM
IC50 [6, 14]: 578 µM

COCCOCCOCCOCCOCCNC(=O)N1c2ccccc2C=Cc2ccccc21 [mPEG5-N-Carbamazepine]
Cardiac INa Fold Change Relative to Parent, 0.1 Hz [5]: 0.4
Cardiac INa Fold Change Relative to Parent, 3 Hz [5]: 0.4

CN(C)CCC=C1c2ccccc2CCc2ccccc21 [Amitriptyline]
Ki [9]: 0.0239 µM
Ki [10]: 0.017 µM

COCCOCCOCCNCCCN1c2ccccc2CCc2ccccc21 [mPEG3-NH-Desipramine, N-mPEG3-3-(10,11-dihydro-dibenzo[b,f]azepin-5-yl)-propylamine]
logP [7]: 3.14
pKa [7]: 8.96
Fold Change Relative to Parent [8]: 3336
Ki [8]: 6.65 µM

NC1=N[C@H](O)[C@H]2[C@H]3O[C@]4(O)O[C@@H]([C@@H](O)[C@@]2(N1)[C@@H]4O)[C@]3(O)CO [TTX, tetrodotoxin, reference compound]
reduction of INa [5]: 47.2% and 56.8%
reduction of INa [6]: 93.2% and 96.8%

COCCOCCOCCN(C)CCCN1c2ccccc2CCc2ccccc21 [mPEG3-N-Desipramine]
pKa [7]: 8.47

COCCOCCOCCOCCOCCOCCOCCN(C)CCC=C1c2ccccc2CCc2ccccc21 [mPEG7-N-Amitriptyline]
H1 Receptor Fold-change over parent [1]: 23
Ki [1]: 0.00744 µM
Ki [4]: 1.14 µM

COCCOCCOCCOCCOCCOCCOCCOCCN(C)CCCN1c2ccccc2CCc2ccccc21 [mPEG8-N-Desipramine]
pKa [7]: 8.66

COCCOCCOCCOCCOCCOCCOCCNC(=O)N1c2ccccc2C=Cc2ccccc21 [mPEG7-N-Carbamazepine]
Cardiac INa Fold Change Relative to Parent, 0.1 Hz [5]: 2.4
Cardiac INa Fold Change Relative to Parent, 3 Hz [5]: 1.2
IC50 [5, 11]: 380 µM
IC50 [5, 12]: 169 µM
IC50 [6, 13]: 144 µM
IC50 [6, 14]: 163 µM

COCCOCCOCCOCCOCCN(C)CCCN1c2ccccc2CCc2ccccc21 [mPEG5-N-Desipramine]
pKa [7]: 8.55
